Earlier results in patent US20070160647A1, “Materials for medical implants and occlusive devices” (Clarity Corporation, priority 2004, published 2007).

SMILES: Oc1cc(Cl)ccc1Oc1ccc(Cl)cc1Cl [triclosan]
- solubility in DMSO and alcohols: highly soluble
- solubility in water: insoluble
